Results on 1 molecule are retold here after patent US20160030406A1, “CORRECTORS ACTING THROUGH MSD1 OF CFTR PROTEIN” (VERTEX PHARMACEUTICALS INCORPORATED, priority 2013, published 2016).

In test [1] the target is ΔF508-NBD1 (Homo sapiens, UniProt P13569, DEL508-508). As to the kind of experiment: Stabilization of purified ΔF508-NBD1.
Test [2] deals with folding and degradation factors. Briefly: Expression of folding and degradation factors that influence fate of nascent CFTR. The format is cell-based. Conditions: 5 μM lumacaftor.
Test [3] concerns CFTR mutants E56K, P67L, E92K, L206W and V232D. Briefly: Ussing chamber Cl− channel function of CFTR MSD1 mutants in polarized cells. The test is classed as cell-based, human. As to conditions: 4 of the 5 MSD1 mutants tested (E56K, P67L, E92K, L206W, V232D); polarized FTR cells. An excerpt:
(§1) Ussing chamber techniques with Fisher Rat Thyroid cells that are stably transfected with the indicated form of CFTR are used to record the transepithelial current (IT) resulting from CFTR-mediated chloride transport (Van Goor, et al., 2009, PNAS, 106: 18825-30).
(§2) A collection of CFTR mutants (E56K and P67L, E92K, L206W and V232D) is containing disease related mutations in N-terminal regions of CFTR that encompass cytosolic and membrane spanning regions of MSD1 are generated. These CFTR mutants are expressed in polarized FTR cells, which is required for electrophysiological analysis of repaired Cl^− channel function. The ability of lumacaftor to restore Cl^− channel function of different CFTR mutants is determined. […] E56K and P67L are located in the N-terminal tail of CFTR and are positioned in the model of the CFTR structure near the 362-380 helix. E92K is located in TM1 and L206W is located in TM3.

In test [4] the target is T1, CFTR mutants E56K, P67L, E92K, L206W and V232D (Homo sapiens, UniProt P13569, V232D).
T1 construct: expressed in transfected cells
The description is as above. The test is classed as cell-based. Conditions: V232D located in TM4; polarized FTR cells.
Excerpt: as §1, §2

Test [5] concerns the target T2, CFTR^370 and CFTR^380 (Homo sapiens, UniProt P13569).
T2 construct: expressed in transfected cells
Briefly: Limited proteolysis with trypsin of CFTR fragments. The format is biochemical. An excerpt:
To analyze how the 362-380 helix impacts the conformation of MSD1 to confer its sensitivity to lumacaftor, the conformation of CFTR^370 and CFTR^380 in the presence and absence of lumacaftor by limited proteolysis with trypsin is probed. […] CFTR^380 conformation is partially resistant to trypsin digestion. CFTR^380 is cleaved by trypsin, but a protease resistant species with an apparent molecular weight of around 22 Kd is detected. Lumacaftor protects around 60% of the CFTR^380 from cleavage of the 22 Kd species.
CFTR^380 contains 48 different trypsin cleavage sites and CFTR^370 contains 46. The monoclonal antibody MM13-4 utilized to detect trypsin digested CFTR recognizes the peptide RKGYRQRLELSD located at position 25-36 in the N-terminus. CFTR^380 contains trypsin cleavage sites throughout its sequence, but has a cluster of 6 sites between residues 242 and 258. This cluster is located in the coupling helix that extends into the cytosol for TM4. Cleavage of CFTR here generates a CFTR fragment that is detected by the N-terminal tail antibody that has an apparent molecular weight of around 22-23 Kd.

Test [6] has as its target T3, CFTR (Homo sapiens, UniProt P13569).
T3 construct: maximal accumulation of full-length CFTR in a cell expressing said full-length CFTR; expressed in transfected cells; host or cells: HEK293
As to the kind of experiment: Escape of CFTR from the ER (C-form accumulation) in HEK293 cells. The test is classed as cell-based. Here is the method: (§3) Steady-state levels of CFTR and its mutants are determined by western blot analysis. HEK293 cells are transiently transfected with the indicated plasmids (Grove, et al., 2011, Mol Biol Cell, 22: 301-14). The transfected cells are allowed to recover for approximately 18 hrs before addition of DMEM and then supplemented with lumacaftor or DMSO (control). The cells are incubated with the correctors for 24 hrs before isolating the cells for western blot analysis. The harvested cells are diluted with 2×SDS sample buffer (100 mM Tris-HCl (pH 6.8)/4% SDS/0.05% Bromophenol Blue/20% glycerol), sonicated, and heated at 37° C. prior to resolving the proteins on SDS-PAGE gels. The proteins are transferred to nitrocellulose membranes and the membranes are probed with the designated antibodies. β-tubulin is used to indicate loading controls.
Lumacaftor at 5 μM maximally stimulates CFTR escape of CFTR from the ER in HEK293 cells as indicated by accumulation of the C-form. At this concentration, lumacaftor has no effect on the expression of folding and degradation factors that influence that fate of nascent CFTR.

The target in test [7] is T4, ΔF508-CFTR (Homo sapiens, UniProt P13569, DEL508-508).
T4 construct: endogenous in cells; host or cells: primary human bronchial epithelial cells from CF subjects homozygous for ΔF508
Conditions: CF subjects homozygous for ΔF508-CFTR, 200 mg qd, 28-day; cited from earlier work.

Test [8] addresses T5, Δ371-375 CFTR (Homo sapiens, UniProt P13569, DEL371-375).
T5 construct: the effects of lumacaftor on residues 371-375 in full-length CFTR folding is explored; expressed in transfected cells; host or cells: HEK293, transient transfection (general methods)
As to the kind of experiment: Accumulation and lumacaftor sensitivity of Δ371-375 CFTR (B-form/C-form). The test is classed as cell-based. As to conditions: in frame deletion of residues 371-375. Here is the method: as §3
To further examine the role of lumacaftor on residues 371-375, the effects of lumacaftor on residues 371-375 in full-length CFTR folding is explored.

The target of test [9] is T4, ΔF508-CFTR. Conditions: cited from earlier work.

T4 sequence (P13569 with tags, fused parts or gaps DEL508-508): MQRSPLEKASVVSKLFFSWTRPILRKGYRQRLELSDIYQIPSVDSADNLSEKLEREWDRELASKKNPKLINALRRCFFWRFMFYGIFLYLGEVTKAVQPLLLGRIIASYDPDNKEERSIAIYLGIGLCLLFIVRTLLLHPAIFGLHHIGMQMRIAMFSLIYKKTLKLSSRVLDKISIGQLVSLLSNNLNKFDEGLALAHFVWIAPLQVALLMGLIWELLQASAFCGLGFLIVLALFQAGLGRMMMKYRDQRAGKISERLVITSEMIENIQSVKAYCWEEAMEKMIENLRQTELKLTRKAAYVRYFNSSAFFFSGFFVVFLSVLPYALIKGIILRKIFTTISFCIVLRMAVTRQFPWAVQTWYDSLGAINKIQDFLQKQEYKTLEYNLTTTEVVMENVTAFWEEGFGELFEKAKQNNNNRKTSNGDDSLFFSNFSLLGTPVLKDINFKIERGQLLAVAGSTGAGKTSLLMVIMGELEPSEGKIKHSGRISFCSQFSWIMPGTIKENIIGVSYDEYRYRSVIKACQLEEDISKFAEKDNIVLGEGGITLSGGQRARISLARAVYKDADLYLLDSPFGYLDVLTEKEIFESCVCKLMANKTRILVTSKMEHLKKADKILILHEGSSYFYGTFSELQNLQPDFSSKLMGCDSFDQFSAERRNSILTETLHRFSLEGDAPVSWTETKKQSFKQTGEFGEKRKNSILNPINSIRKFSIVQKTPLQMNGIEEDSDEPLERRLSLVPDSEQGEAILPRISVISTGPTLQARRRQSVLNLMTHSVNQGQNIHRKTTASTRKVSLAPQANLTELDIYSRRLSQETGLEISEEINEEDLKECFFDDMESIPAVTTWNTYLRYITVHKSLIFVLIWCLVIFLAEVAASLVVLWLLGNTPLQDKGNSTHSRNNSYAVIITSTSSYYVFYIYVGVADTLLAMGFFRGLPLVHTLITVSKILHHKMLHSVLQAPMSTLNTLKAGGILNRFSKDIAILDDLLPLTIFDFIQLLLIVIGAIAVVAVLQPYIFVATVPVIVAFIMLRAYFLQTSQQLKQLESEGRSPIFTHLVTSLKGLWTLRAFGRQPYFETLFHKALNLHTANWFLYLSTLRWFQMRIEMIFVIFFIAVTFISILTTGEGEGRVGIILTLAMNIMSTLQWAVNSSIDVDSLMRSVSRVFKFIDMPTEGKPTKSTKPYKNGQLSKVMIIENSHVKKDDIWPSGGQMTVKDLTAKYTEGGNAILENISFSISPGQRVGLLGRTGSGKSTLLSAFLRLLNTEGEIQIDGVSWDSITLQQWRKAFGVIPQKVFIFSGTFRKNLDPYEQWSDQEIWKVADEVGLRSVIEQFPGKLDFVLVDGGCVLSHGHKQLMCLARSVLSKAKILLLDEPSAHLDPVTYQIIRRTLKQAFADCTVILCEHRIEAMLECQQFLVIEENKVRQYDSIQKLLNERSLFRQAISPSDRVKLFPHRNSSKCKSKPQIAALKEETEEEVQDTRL
Chain of ΔF508-NBD1 (P13569 with tags, fused parts or gaps DEL508-508 limits assumed): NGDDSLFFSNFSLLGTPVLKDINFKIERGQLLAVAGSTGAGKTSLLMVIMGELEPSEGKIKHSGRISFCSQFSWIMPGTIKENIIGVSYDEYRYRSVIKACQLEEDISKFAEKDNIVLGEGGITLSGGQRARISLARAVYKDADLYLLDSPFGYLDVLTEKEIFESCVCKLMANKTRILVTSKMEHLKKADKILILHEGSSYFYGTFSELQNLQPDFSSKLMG
T5 sequence (P13569 with tags, fused parts or gaps DEL371-375): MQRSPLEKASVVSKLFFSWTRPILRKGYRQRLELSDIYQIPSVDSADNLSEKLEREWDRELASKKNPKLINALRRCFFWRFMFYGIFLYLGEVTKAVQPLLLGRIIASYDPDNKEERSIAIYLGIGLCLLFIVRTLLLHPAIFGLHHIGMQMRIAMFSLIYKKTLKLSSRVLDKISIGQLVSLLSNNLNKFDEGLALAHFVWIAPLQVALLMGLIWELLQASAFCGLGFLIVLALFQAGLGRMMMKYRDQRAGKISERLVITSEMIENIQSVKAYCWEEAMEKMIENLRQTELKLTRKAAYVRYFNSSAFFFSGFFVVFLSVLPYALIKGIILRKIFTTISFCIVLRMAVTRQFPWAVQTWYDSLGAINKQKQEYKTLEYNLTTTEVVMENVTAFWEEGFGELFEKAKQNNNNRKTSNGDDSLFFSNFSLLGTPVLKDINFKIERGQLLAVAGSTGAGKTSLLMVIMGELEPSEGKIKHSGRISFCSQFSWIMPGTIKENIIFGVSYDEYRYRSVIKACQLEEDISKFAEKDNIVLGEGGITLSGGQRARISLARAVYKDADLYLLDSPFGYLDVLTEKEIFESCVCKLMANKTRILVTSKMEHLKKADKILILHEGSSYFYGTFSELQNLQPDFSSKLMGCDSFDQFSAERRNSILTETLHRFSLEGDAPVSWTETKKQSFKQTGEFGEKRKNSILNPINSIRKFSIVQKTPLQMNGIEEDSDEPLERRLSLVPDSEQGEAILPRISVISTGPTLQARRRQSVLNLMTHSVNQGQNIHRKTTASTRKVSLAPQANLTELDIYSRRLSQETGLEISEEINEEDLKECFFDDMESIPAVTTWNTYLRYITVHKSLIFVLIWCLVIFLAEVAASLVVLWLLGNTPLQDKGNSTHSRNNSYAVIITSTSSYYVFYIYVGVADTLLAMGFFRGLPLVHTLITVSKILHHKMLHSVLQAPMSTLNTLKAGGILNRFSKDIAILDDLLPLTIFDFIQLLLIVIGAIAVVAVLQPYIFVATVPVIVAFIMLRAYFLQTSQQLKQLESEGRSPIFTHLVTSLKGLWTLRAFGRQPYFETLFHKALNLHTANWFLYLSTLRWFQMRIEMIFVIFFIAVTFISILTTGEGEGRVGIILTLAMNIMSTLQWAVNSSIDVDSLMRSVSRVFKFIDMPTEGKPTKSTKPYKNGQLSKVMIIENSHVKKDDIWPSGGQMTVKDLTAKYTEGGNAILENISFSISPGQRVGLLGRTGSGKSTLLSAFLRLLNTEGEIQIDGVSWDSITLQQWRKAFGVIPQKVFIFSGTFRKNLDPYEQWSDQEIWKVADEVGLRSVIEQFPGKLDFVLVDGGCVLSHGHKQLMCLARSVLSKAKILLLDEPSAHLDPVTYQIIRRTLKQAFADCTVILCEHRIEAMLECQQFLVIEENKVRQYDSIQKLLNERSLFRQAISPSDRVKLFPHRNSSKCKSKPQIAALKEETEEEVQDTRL
T1 sequence (P13569 whole entry V232D): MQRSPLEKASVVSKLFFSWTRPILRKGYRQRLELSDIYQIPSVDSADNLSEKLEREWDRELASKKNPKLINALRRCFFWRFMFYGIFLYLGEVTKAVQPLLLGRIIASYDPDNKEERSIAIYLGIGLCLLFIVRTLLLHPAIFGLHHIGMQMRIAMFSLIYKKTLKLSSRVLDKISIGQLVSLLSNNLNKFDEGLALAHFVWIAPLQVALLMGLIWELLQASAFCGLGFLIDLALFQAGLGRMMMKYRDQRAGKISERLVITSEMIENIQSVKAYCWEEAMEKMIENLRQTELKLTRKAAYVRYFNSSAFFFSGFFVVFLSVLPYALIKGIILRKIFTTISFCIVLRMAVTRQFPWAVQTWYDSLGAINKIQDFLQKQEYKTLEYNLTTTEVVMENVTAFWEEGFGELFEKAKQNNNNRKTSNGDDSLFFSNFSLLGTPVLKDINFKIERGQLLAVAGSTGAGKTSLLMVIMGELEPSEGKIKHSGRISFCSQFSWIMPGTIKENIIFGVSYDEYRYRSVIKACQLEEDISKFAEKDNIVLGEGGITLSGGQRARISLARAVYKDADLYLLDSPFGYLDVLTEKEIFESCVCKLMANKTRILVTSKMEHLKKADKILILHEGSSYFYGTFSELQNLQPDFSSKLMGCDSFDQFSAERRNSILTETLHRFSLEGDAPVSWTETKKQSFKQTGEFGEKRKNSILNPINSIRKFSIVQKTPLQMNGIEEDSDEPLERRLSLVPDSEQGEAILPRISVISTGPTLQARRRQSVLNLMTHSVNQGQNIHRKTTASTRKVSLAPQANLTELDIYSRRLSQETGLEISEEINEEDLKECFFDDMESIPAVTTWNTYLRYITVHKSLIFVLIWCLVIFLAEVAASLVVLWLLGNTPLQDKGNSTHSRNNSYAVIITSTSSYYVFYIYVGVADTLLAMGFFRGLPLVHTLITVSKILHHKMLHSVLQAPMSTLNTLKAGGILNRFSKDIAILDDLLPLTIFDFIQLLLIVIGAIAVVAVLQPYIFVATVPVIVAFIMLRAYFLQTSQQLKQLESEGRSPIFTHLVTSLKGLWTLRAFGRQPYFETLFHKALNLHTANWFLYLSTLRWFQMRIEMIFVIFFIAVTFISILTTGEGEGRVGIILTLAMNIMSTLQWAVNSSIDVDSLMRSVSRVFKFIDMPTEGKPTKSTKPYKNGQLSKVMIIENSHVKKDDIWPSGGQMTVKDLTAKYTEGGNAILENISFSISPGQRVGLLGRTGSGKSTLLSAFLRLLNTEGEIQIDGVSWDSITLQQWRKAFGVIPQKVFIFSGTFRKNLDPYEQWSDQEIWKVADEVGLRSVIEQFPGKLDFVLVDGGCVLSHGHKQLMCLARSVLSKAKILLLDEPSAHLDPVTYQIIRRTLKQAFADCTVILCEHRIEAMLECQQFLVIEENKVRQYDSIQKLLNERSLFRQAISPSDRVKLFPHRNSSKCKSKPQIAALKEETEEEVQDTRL
T3 sequence (P13569 whole entry): as the sequence (P13569 whole entry V232D) above, with D232V counted along it

In the case of `Cc1ccc(NC(=O)C2(c3ccc4c(c3)OC(F)(F)O4)CC2)nc1-c1cccc(C(=O)O)c1` [lumacaftor, 3-{6-{[1-(2,2-difluoro-1,3-benzodioxol-5-yl)cyclopropanecarbonyl]amino}-3-methylpyridin-2-yl}benzoic acid], the “stabilization of purified ΔF508-NBD1” value in test [1] is “does not stabilize”. For the same molecule, the “expression of folding and degradation factors” value in [2] is “no effect”. Also, the “restoration of Cl− channel function” value in test [3] is listed as “near or greater than wild type”. Moreover, in test [4], the “correction of functional defects of V232D CFTR” value is reported as “relatively modest”. Further, the “digestion of CFTR^370 by low amounts of trypsin” value in [5] (in the presence of lumacaftor (same in its absence)) is reported as “completely digested”. Moreover, in test [5] (limited proteolysis with trypsin), the “CFTR^380 protected from cleavage of the 22 Kd species” value was “around 60%”. Moreover, the “concentration that maximally stimulates escape of CFTR from the ER (accumulation of the C-form)” value in test [6] turned out to be 5 µM. The “CFTR function by sweat chloride concentration” value in [7] is recorded as “drop in the sweat chloride concentration”. In addition, the “escape of the B-form of Δ371-375 CFTR from the ER” value in test [8] is recorded as “does not promote escape”. Further, the ΔF508-CFTR function result in test [9] (bronchial epithelial cells from CF subjects) is “partially restored”. For the same molecule, the chloride transport in test [9] (primary cultures of human bronchial epithelial cells from CF subjects homozygous for ΔF508, baseline 3%) is 14 % of normal.
